This note sets out measurements from patent US10398751B2, “Pharmaceutical compositions of water soluble peptides with poor solubility in isotonic conditions and methods for their use” (STRONGBRIDGE IRELAND LIMITED, priority 2016, dated 2019).

Data set [1] relates to CHO-cells expression cloned human SST-R5. The data set can be described thus: Growth inhibition of CHO cells. The class given is cell-based.
A short description of data set [2]: Quantitative assessment of veldoreotide acetate solubility by HPLC. The data set is classed as physicochemical. To be noted: read-out: Solubility (g/liter) - HPLC. The text has this:
The solubility of veldoreotide acetate in aqueous media was screened by the following method. A fixed amount of 10 milligrams of the peptide was weighed and dissolved at ambient temperature by increased (incremental) volumes of the tested medium until a complete solubility was observed, i.e, clear/transparent solution and absence of any precipitates (the solubility endpoint values were defined according to USP guidance). Following the results of the screening studies, several media were selected for verification studies based on quantitative assessment of the peptide concentration by HPLC (maximal solubility). The results of the screening study are depicted in Table 1 while the results of the verification studies are included in Table 2.

Data set [3] in a line: Peptide content, encapsulation efficiency and residual additives of microspheres. The data set is classed as physicochemical. To be noted: Example 7 PLGA 50:50 (7-17 kDa) microspheres. The source says: These observations and conclusion are supported by the analysis of the residual HPB concentration in the MS formulations of HPB. Indeed, the analytical data (see below) confirms that the same ratio of HPB:PEP were maintained in the final MS of HPB and therefore verifying the conditions and data of Table 6.
Therefore, unlike the case of HPB, the effect of the DEX on the COR005 surface activity at the injection site seems to be negligible. The effect for the DEX is addressed in the SEM analysis section below.
Tables 19 and 20 summarize the peptide content and encapsulation efficiency (EE) of bulk samples of microspheres, measured by HPLC.
PLGA microspheres containing veldoreotide acetate were prepared. 500 mg of PLGA 50:50 (7-17 kDa) was dissolved in 5 mL dichloromethane oil phase). An aqueous solution contacting 50 mg of veldoreotide acetate in 1 ml of DDW prepared separately (inner aqueous phase). The first aqueous phase was emulsified into the oil phase (containing PLGA), using a high-speed homogenizer (Polytron) at 2-8° C. using different speeds and time durations to form water in oil primary emulsion. The primary emulsion was added (drop wise) into the 100 ml of external aqueous phase containing 1% PVA solution in PBS to form secondary emulsion. […]

The nature of data set [4]: Circulatory half-life after subcutaneous administration to rats. To be noted: rat, in vivo, sc. The text has this: The unique pharmacokinetic profile of veldoreotide acetate as evaluated in animals is consistent with its metabolic stability as evaluated in-vitro against various enzymes and tissue homogenates. […] This prolonged half-life is due to its unique “flip-flop” kinetics, a result of its slow release from the injection site.

Where a name gives a salt, the structure may show the parent alone. Read-outs that look alike come from different tables or passages of the source.

Usually half-life stands for the time needed for the level to fall by half in the phase considered.

Turning to `C[C@@H](O)[C@@H]1NC(=O)[C@H](CCCCN)NC(=O)[C@@H](Cc2c[nH]c3ccccc23)NC(=O)[C@H](Cc2c[nH]c3ccccc23)NC(=O)[C@H](Cc2ccccc2)NC(=O)CCCNC(=O)CCCN(CC(N)=O)C(=O)[C@H](Cc2ccccc2)NC1=O` [Veldoreotide Acetate, Cyclo(-γ-aminobutyryl-L-phenylalanyl-L-tryptophanyl-D-tryptophanyl-L-lysyl-L-threonyl-L-phenylalanyl-N-carbamoylmethyl-γ-aminobutyryl), acetate salt], in data set [1], the growth inhibition entry is recorded as “significant growth inhibition”. Moreover, the solubility is 212 g/L in data set [2] (20 mM HEPES buffer, 20 mM HEPES, pH 7.2); 212 g/L in data set [2] (20 mM phosphate buffer, 20 mM Phosphate (10 mM Na2HPO4 + 10 mM NaH2PO4), pH 7.2); 2.31 g/L in data set [2] (0.9% NaCl, pH 4.5); 3.25 g/L in data set [2] (PBS, pH 7.4); 234 g/L in data set [2] (water). For the same compound, in data set [3], the “encapsulation efficiency (EE) %” value amounted to 77%. In addition, the “final drug load in microspheres” value in data set [3] is 6 weight %. Also, the half-life in data set [4] is roughly 3 h.
